US8247211B2, “Glycopeptide antibiotics” (American Cyanamid Company, priority 2001, dated 2012)
≈ marks a conversion by molar mass, not a printed value.

Tests used:
[1] = test system: Staphylococcus aureus-SMITH (GC 4543); test: Acute lethal infection in mice (ED50); assay type: in vivo; conditions: female CD-1 mice, intraperitoneal challenge, intravenous dose 30 min. after infection, 7 day survival ratios
Method in brief: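 Bacteria suspended in Trypticase Soy Broth or hog gastric mucin are injected intraperitoneally into female CD-1 mice at a dose killing untreated animals within 24-48 hr. Thirty minutes later, test agent is administered intravenously. Survival at day 7 is scored.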

Streptococcus sp. = test: In vitro antibacterial evaluation: minimum inhibitory concentration (MIC), broth dilution method; assay type: cell-based
Method in brief: (§1)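 MIC by broth dilution in Mueller-Hinton II medium following NCCLS M7-A2. Inoculum was 5×10^5 CFU/mL and antibiotic was tested over 64-0.06 μg/mL. Gram-positive panel included clinical isolates resistant to methicillin, penicillin and/or vancomycin.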

Enterococcus sp. = test: as above; assay type: cell-based
Method in brief: as §1

Escherichia coli = test: as above; assay type: cell-based
Method in brief: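 Broth dilution per NCCLS M7-A2 in Muller-Hinton II […], inoculum 5×10^5 CFU/mL, antibiotic tested over 64-0.06 μg/mL. MIC is taken as the lowest concentration that inhibits growth. Panel includes recent clinical isolates resistant to methicillin, penicillin and/or vancomycin.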

Staphylococcus sp. = test: as above; assay type: cell-based; conditions: broth dilution, 18 hours at 35° C.
Method in brief: as §1

[2] = broth dilution, inoculum 5×10^5 CFU/mL, 18 hours at 35° C.

CC(c1ccccc1)C1NC(=O)CNC(=O)C(CO)NC(=O)C(C(O)C2CNC(=N)N2C2OC(CO)C(O)C(O)C2O)NC(=O)C(C(O)C2CNC(=N)N2)NC(=O)C(Cc2ccc(OC3OC(CO)C(OC4OC5COC(c6cc7c(cc6Cl)OCO7)OC5C(O)C4O)C(O)C3O)cc2)NC1=O (stereo not drawn) [Example 158, Cyclo[glycyl-β-methylphenylalanyl-O-[4-O-[4,6-O-[(6-chloro-1,3-benzodioxol-5-yl)-methylene]hexopyranosyl]hexopyranosyl]tyrosyl-3-(2-iminoimidazolidin-4-yl)seryl-3-(3-hexopyranosyl-2-iminoimidazolidin-4-yl)serylseryl]]
median effective dose (ED50), Staphylococcus aureus-SMITH (GC 4543) [1]: 0.14 mg/kg
MIC Streptococcus pneumoniae (ATCC 6301) (Streptococcus sp.; strain ATCC 6301): 0.12 µg/mL (≈ 0.0821 µM)
MIC Streptococcus pneumoniae (GC 1894) (Streptococcus sp.; strain GC 1894): <0.06 µg/mL
MIC Streptococcus pyogenes (GC 4563) (Streptococcus sp.; strain GC 4563): 0.25 µg/mL (≈ 0.171 µM)
MIC Streptococcus agalactiae (GC 4564) (Streptococcus sp.; strain GC 4564): 0.25 µg/mL (≈ 0.171 µM)
MIC Streptococcus pneumoniae (GC 4565) (Streptococcus sp.; strain GC 4565): <0.06 µg/mL
MIC Enterococcus avium (GC 4558) (Enterococcus sp.; [2]): 4 µg/mL (≈ 2.74 µM)
MIC Enterococcus faecalis (ATCC 29212) (Enterococcus sp.; [2]): 4 µg/mL (≈ 2.74 µM)
MIC Enterococcus faecalis (GC 4552) (Enterococcus sp.; [2]): 8 µg/mL (≈ 5.47 µM)
MIC Enterococcus faecalis (GC 4553) (Enterococcus sp.; [2]): 4 µg/mL (≈ 2.74 µM)
MIC Enterococcus faecalis (GC 4554) (Enterococcus sp.; [2]): 4 µg/mL (≈ 2.74 µM)
MIC Enterococcus faecalis (GC 6189) (Enterococcus sp.; [2]): 4 µg/mL (≈ 2.74 µM)
MIC Enterococcus faecium (GC 2243) (Enterococcus sp.; [2]): 4 µg/mL (≈ 2.74 µM)
MIC Enterococcus faecium (GC 4556) (Enterococcus sp.; [2]): 8 µg/mL (≈ 5.47 µM)
MIC Enterococcus faecium (GC 4557) (Enterococcus sp.; [2]): 2 µg/mL (≈ 1.37 µM)
MIC Enterococcus faecalis (ATCC 29212) (Enterococcus sp.; strain ATCC 29212): 4 µg/mL (≈ 2.74 µM)
MIC Enterococcus faecalis (GC 2242) (Enterococcus sp.; strain GC 2242): 4 µg/mL (≈ 2.74 µM)
MIC Enterococcus faecium (GC 2243) (Enterococcus sp.; strain GC 2243): 4 µg/mL (≈ 2.74 µM)
MIC Enterococcus faecalis (GC 2691) (Enterococcus sp.; strain GC 2691): 4 µg/mL (≈ 2.74 µM)
MIC Enterococcus faecalis (GC 3059) (Enterococcus sp.; strain GC 3059): 4 µg/mL (≈ 2.74 µM)
MIC Enterococcus faecalis (GC 4552) (Enterococcus sp.; strain GC 4552): 8 µg/mL (≈ 5.47 µM)
MIC Enterococcus faecalis (GC 4553) (Enterococcus sp.; strain GC 4553): 4 µg/mL (≈ 2.74 µM)
MIC Enterococcus faecalis (GC 4554) (Enterococcus sp.; strain GC 4554): 4 µg/mL (≈ 2.74 µM)
MIC Enterococcus faecium (GC 4556) (Enterococcus sp.; strain GC 4556): 8 µg/mL (≈ 5.47 µM)
MIC Enterococcus faecium (GC 4557) (Enterococcus sp.; strain GC 4557): 2 µg/mL (≈ 1.37 µM)
MIC Enterococcus avium (GC 4558) (Enterococcus sp.; strain GC 4558): 4 µg/mL (≈ 2.74 µM)
MIC Enterococcus faecalis (GC 6189) (Enterococcus sp.; strain GC 6189): 4 µg/mL (≈ 2.74 µM)
MIC Escherichia coli (ATCC 25922) (Escherichia coli; strain ATCC 25922): 64 µg/mL (≈ 43.8 µM)
MIC Escherichia coli (GC 4559) (Escherichia coli; strain GC 4559): 64 µg/mL (≈ 43.8 µM)
MIC Escherichi coli (GC 4560) (Escherichia coli; strain GC 4560): 1 µg/mL (≈ 0.684 µM)
MIC Coagulase Negative Staphylococcus (GC 4547) (Staphylococcus sp.; 5×10^5 CFU/mL): 2 µg/mL (≈ 1.37 µM)
MIC Coagulase Negative Staphylococcus (GC 4548) (Staphylococcus sp.; 5×10^5 CFU/mL): 1 µg/mL (≈ 0.684 µM)
MIC Coagulase Negative Staphylococcus (GC 4549) (Staphylococcus sp.; 5×10^5 CFU/mL): 1 µg/mL (≈ 0.684 µM)
MIC Coagulase Negative Staphylococcus (GC 4551) (Staphylococcus sp.; 5×10^5 CFU/mL): 2 µg/mL (≈ 1.37 µM)
MIC Coagulase Negative Staphylococcus (GC 6257) (Staphylococcus sp.; 5×10^5 CFU/mL): 1 µg/mL (≈ 0.684 µM)
MIC Staphylococcus aureus (ATCC 29213) (Staphylococcus sp.; 5×10^5 CFU/mL): 2 µg/mL (≈ 1.37 µM)
MIC Staphylococcus aureus (GC 1131) (Staphylococcus sp.; 5×10^5 CFU/mL): 2 µg/mL (≈ 1.37 µM)
MIC Staphylococcus aureus (GC 3051) (Staphylococcus sp.; 5×10^5 CFU/mL): 1 µg/mL (≈ 0.684 µM)
MIC Staphylococcus aureus (GC 3053) (Staphylococcus sp.; 5×10^5 CFU/mL): 2 µg/mL (≈ 1.37 µM)
MIC Staphylococcus aureus (GC 4541) (Staphylococcus sp.; 5×10^5 CFU/mL): 1 µg/mL (≈ 0.684 µM)
MIC Staphylococcus aureus (GC 4542) (Staphylococcus sp.; 5×10^5 CFU/mL): 1 µg/mL (≈ 0.684 µM)
MIC Staphylococcus aureus (GC 4544) (Staphylococcus sp.; 5×10^5 CFU/mL): 2 µg/mL (≈ 1.37 µM)
MIC Staphylococcus aureus (GC 4545) (Staphylococcus sp.; 5×10^5 CFU/mL): 2 µg/mL (≈ 1.37 µM)
MIC Staphylococcus aureus-SMITH (GC 4543) (Staphylococcus sp.; 5×10^5 CFU/mL): 2 µg/mL (≈ 1.37 µM)
MIC Staphylococcus haemolyticus (GC 4546) (Staphylococcus sp.; 5×10^5 CFU/mL): 0.5 µg/mL (≈ 0.342 µM)
MIC Staphylococcus aureus (ATCC 29213) (Staphylococcus sp.; strain ATCC 29213): 2 µg/mL (≈ 1.37 µM)
MIC Staphylococcus aureus (GC 1131) (Staphylococcus sp.; strain GC 1131): 2 µg/mL (≈ 1.37 µM)
MIC Staphylococcus aureus (GC 3051) (Staphylococcus sp.; strain GC 3051): 1 µg/mL (≈ 0.684 µM)
MIC Staphylococcus aureus (GC 3053) (Staphylococcus sp.; strain GC 3053): 2 µg/mL (≈ 1.37 µM)
MIC Staphylococcus aureus (GC 4541) (Staphylococcus sp.; strain GC 4541): 1 µg/mL (≈ 0.684 µM)
MIC Staphylococcus aureus (GC 4542) (Staphylococcus sp.; strain GC 4542): 1 µg/mL (≈ 0.684 µM)
MIC Staphylococcus aureus-SMITH (GC 4543) (Staphylococcus sp.; strain GC 4543): 2 µg/mL (≈ 1.37 µM)
MIC Staphylococcus aureus (GC 4544) (Staphylococcus sp.; strain GC 4544): 2 µg/mL (≈ 1.37 µM)
MIC Staphylococcus aureus (GC 4545) (Staphylococcus sp.; strain GC 4545): 2 µg/mL (≈ 1.37 µM)
MIC Staphylococcus haemolyticus (GC 4546) (Staphylococcus sp.; strain GC 4546): 0.5 µg/mL (≈ 0.342 µM)
MIC Coagulase Negative Staphylococcus (GC 4547) (Staphylococcus sp.; strain GC 4547): 2 µg/mL (≈ 1.37 µM)
MIC Coagulase Negative Staphylococcus (GC 4548) (Staphylococcus sp.; strain GC 4548): 1 µg/mL (≈ 0.684 µM)
MIC Coagulase Negative Staphylococcus (GC 4549) (Staphylococcus sp.; strain GC 4549): 1 µg/mL (≈ 0.684 µM)
MIC Coagulase Negative Staphylococcus (GC 4551) (Staphylococcus sp.; strain GC 4551): 2 µg/mL (≈ 1.37 µM)
MIC Coagulase Negative Staphylococcus (GC 6257) (Staphylococcus sp.; strain GC 6257): 1 µg/mL (≈ 0.684 µM)
